# Key:
# MLE-12 cells = experiment: Protection of alveolar cells from elastase cell toxicity, neutral red uptake (NRU) assay; format: cell-based, murine; conditions: 100 μg/mL EGF; 2 U/mL elastase; elastase only = 100%, medium only = 0% cell toxicity
# Description: MLE-12 cells were divided into a 96-well plate such that the number of MLE-12 cells per well was […]. The MLE-12 cells were incubated in 5% CO2 incubator at 37° C. for one day. […] A neutral red uptake (NRU) assay was performed using a neutral red that dyes only living cells to measure the degree of cell death. […] The cells were fixed using a fixing solution (1% formaldehyde, 1% CaCl2) for 1 minute, and the neutral red dye reagent was extracted using a chromogenic solution including 50% ethanol and 1% glacial acetic acid. Then, light absorbance was measured at a wavelength of 540 nm.
# [1] = tested on: MUC5AC gene expression in NCI-H292 cells; experiment: Suppression of MUC5AC mucus gene expression in PA-LPS/TGF-α-treated NCI-H292 cells (real time PCR); format: cell-based, human; conditions: 50 ng/mL EGF; NCI-H292 cells pre-treated with PA-LPS and TGF-α for 6 hours; vs control with PA-LPS and TGF-α only
# Description: NCI-H292 cells (ATCC, CRL-1848) were divided into a 6-well plate such that the number of the NCI-H292 cells per well was 10^6. The NCI-H292 cells were incubated in a 5% CO2 incubator at 37° C. for one day. The NCI-H292 cells were incubated in a serum free medium for one day, and then treated with 100 mg/mL of Pseudomonas aeruginosa lipopolysaccharide (PA-LPS, Sigma L8643) and 10 ng/mL of a transforming growth factor-alpha (TGF-α R&D systems 239-a-100) at the same time for 6 hours to induce overexpression of MUC5AC mucus. The PA-LPS and TGF-α were removed, and epidermal growth factors (EGFs) having different concentrations were added to the NCI-H292 cells. […]
# RNA was isolated using a kit manufactured by QIAGEN (RNeasy Plus Mini Kit, 74134) according to the manuals provided by the manufacturer in order to isolate entire RNA. Absorbance of the isolated RNA was measured using a spectrophotometer at a wavelength of 260 nm to quantitatively analyze RNA. […]
# A SYBR green assay was performed by adding cDNA, a forward primer, and a reverse primer to 12.5 mL of a SYBR green PCR master mix (Applied Biosystems, 4309155) such that the total volume of the mixture was set to 25 mL. […] The determined concentrations of the primers for MUC5AC, ICAM-1, RPL1 were respectively 900 nM, and the concentration β-ACT thereof was 300 nM. […]
# [2] = tested on: PPE-induced emphysema model; experiment: PPE-induced rat emphysema model, histopathological examination of lung and trachea; format: in vivo, Sprague-Dawley rats
# Description: 6-week old male Sprague-Dawley rats (Japan SLC, Inc) having an average weight ranging from 200 to 250 g were accommodated for 1 week to prepare 7-week old rats. The rats were raised in individual ventilated cage (IVC) racks (GR900 plus rat cage, Polysulfone, 355 W×405 I×230 H mm) at a constant temperature (22±3° C.) at a constant relative humidity (55±15%) using fluorescent lamps (lights are on 08:00 to 20:00) for 12 hours, and food and water were fed ad libitum (solid feed 5L79, Orient Co., Ltd.). 120 U/kg, 1 mL/kg of pig pancreas elastase (PPE, Merck 324682) was administered once by intratracheal instillation to rats anesthetized with isoflurane. 1 mL/kg of 0.9% saline was administered once by intratracheal instillation to rats in the group in which emphysema was not induced. In order to uniformly administer test article into lung cavity, the same amount of air as the administered substances was administered during the intratracheal instillation. […] After 7 weeks from the PPE administration, the rats were anesthetized with isoflurane, and the lung and the trachea were isolated and fixed using 10% neutral formalin. Then histopathological examination of the lung and the trachea were performed and microscopic images were obtained. The test results were represented as average ±standard deviation. In order to detect a test group statistically significant from a control group, the results were statistically tested using one way ANOVA, and significance was analyzed using a multiple comparison method. […] In addition, FIGS. 7 and 8 illustrated the results of the tissue pathological tests of tracheas and lungs with a table.
# [3] = G3: 0.1 mg/kg EGF intratracheal instillation, once a week for 3 weeks, rats
substance,measurement,setting,value
"EGF: recombinant proteins having the same amino acid sequence as natural human epidermal growth factor (hEGF); 53 amino acids, SEQ ID NO: 1",reduction of cell toxicity,MLE-12 cells,about 15%
same,reduction of expression of MUC5AC,[1],65%
same,degree and number of enlargement and breakdown of alveoli compared with the control group of PPE-induced emphysema model,"[2]; G3, group with emphysema treated with EGF",reduced
same,cases with mild breakdown of alveoli,[2]; [3],3 cases
same,cases with mild enlargement of alveoli,[2]; [3],3 cases
same,cases with moderate breakdown of alveoli,[2]; [3],1 case
same,cases with moderate enlargement of alveoli,[2]; [3],1 case
same,cases with very mild breakdown of alveoli,[2]; [3],1 case
same,cases with very mild enlargement of alveoli,[2]; [3],2 cases
same,cases with very mild histiocytosis,[2]; [3],1 case

# Source: US20110192396A1, “PHARMACEUTICAL COMPOSITION FOR PREVENTING OR TREATING CHRONIC OBSTRUCTIVE PULMONARY DISEASE” (DAEWOONG CO., LTD., priority 2008, published 2011)
